Assay [1] deals with PI3K/AKT/mTOR pathway in OPM2 and JJN3 cells. Description: Immunoblotting of PI3K/AKT/mTOR pathway in OPM2 and JJN3 cells. As to conditions: OPM2 and JJN3, increasing concentration, 24 hr. It is filed as cell-based, human. On the procedure:
Subsequently, the inhibition of C98 on the PI3K signaling pathway was evaluated in MM cell lines OPM2 and JJN3. […] Because all these kinases are downstream signaling proteins in the PI3K pathway while C98 had no effects on AKT and mTOR in the cell free assay, the inhibition of C98 on these kinases was probably due to its suppression on PI3K.
(§1) (B) LP1 and JJN3 cells were starved overnight, then treated with C98 or S14161 for 2 hr, followed by IGF-1 (100 ng/mL) for 15 min. Cells were then prepared for the analysis of the expression of p-AKT, t-AKT, p-IGF-1R, and IGF-1R by immunoblotting. (C) OPM2 and JJN3 cells were treated with increasing concentrations of C98 for 24 hr before being applied to immunoblotting against p-ERK, t-ERK, p-P38, t-P38, p-Src, t-Src, p-STAT3, or t-STAT3. GAPDH and β-actin were used as loading controls.
(§2) The immunoblotting assays were performed as described previously. IRDye 680 goat anti-mouse and IRDye 800CW goat anti-rabbit antibodies were from Odyssey (San Ramon, CA, USA).
For orientation: Immunoblotting shows a protein as a band on a membrane.

For another assay, the system named is PTEN. The assay is described as follows: Immunoblotting of PTEN protein level in MM cells. The assay is classed as cell-based. The following applies: MM cells after C98 treatment. On the procedure: (§3) To find out whether C98 also interfered with other signaling pathways, we first checked the receptor tyrosine kinase IGF-1R, which mediates PI3K activation in MM cells in the presence of IGF-1. Starved MM cells LP1 and JJN3 were incubated with C98 followed by IGF-1 stimulation. […] Moreover, we also measured the expression of PTEN, a negative regulator of PI3K signaling, in MM cells after C98 treatment.
as §2

Assay [2] addresses recombinant human PI3K isoform α (Homo sapiens, UniProt P42336). The assay is described as follows: Kinase activity in cell-free assay (HotSpot), PI3Kα. As to conditions: read-out: IC50 against PI3K α isoform. The assay is classed as biochemical. Here is the method: (§4) To confirm this hypothesis, the inhibitory potency of C98 on PI3K enzymes was measured in a cell-free system with individual recombinant human PI3K isoforms. […] To further evaluate its specificity on PI3K, the effects of C98 on other associated kinases AKT, PDK1, and mTOR were also measured in the enzymatic systems. […] Therefore, C98 preferred to inhibit PI3K activity.
(§5) Figure 1 C98 inhibits PI3K activity (A) Chemical structure of C98. (B) OPM2 cells were starved overnight and then treated with six compounds identified from the virtual screening for 2 hr, followed by IGF-1 stimulation for 15 min. Cell lysates were prepared for AKT expression and phosphorylation analyses. The known PI3K inhibitor S14161 was used as a positive control. (C) OPM2 cells were starved overnight, then treated with C98 at indicated concentration (25, 50 and 100 μM) or S14161 (100 μM) for 2 hr, followed by IGF-1 (100 ng/mL) stimulation for 15 min Cell lysates were prepared for AKT expression and phosphorylation analyses. […] Activity of each kinase was determined with HotSpot technology as described in the Methods section “Kinase activity in cell-free assay”. […]

The test system of the next assay is OPM2 xenograft. Description: OPM2 myeloma xenograft in nude mice. The assay is classed as in vivo. The following applies: 80 mg/kg oral daily.
For another assay, the system named is IGF-1R. The assay is described as follows: Immunoblotting of IGF-1R phosphorylation in starved, IGF-1-stimulated LP1 and JJN3 cells. It is filed as cell-based. The following applies: 100 μM, 2 hr, then IGF-1. On the procedure:
as §1, §3, §2

Another assay has as its system p38. Description: Immunoblotting of p38 phosphorylation in OPM2 and JJN3 cells. As to conditions: OPM2 and JJN3, 24 hr. The assay is classed as cell-based, human. On the procedure: as §1
To further clarify the effects of C98 on other signaling pathways associated with PI3K signaling, we evaluated ERK and p38, both of which mediate extracellular signaling similar to PI3K. […] We also checked the phosphorylation status of STAT3, a signal transducer and activator of transcription. […] Therefore, C98 had no effects on these kinases/proteins associated with PI3K signaling.
as §2

For a further assay, the system named is JJN3 cells. The assay is described as follows: Immunoblotting of caspase-3 activation in JJN3 cells. It is filed as cell-based, human. The following applies: JJN3, 0-20 μM 24 hr or 10 μM 0-9 hr. On the procedure:
To answer whether C98 could induce apoptosis in other MM cells, 5 more MM cells were subject to the study. […] Cell apoptosis induced by C98 was further confirmed by the increased fraction of positive cells stained with Annexin V (Figure 5). To show whether activated PI3K signals can rescue C98 effects on MM cells, both OPM2 and RPMI-8226 cells were treated with IGF-1 alone or together with C98 for 48 hr followed by MTT assay.
Figure 4 C98 activates apoptotic signaling in MM cells (A) JJN3 cells were treated with C98 (0, 2.5, 5, 10, 20 μM) for 24 hr or 10 μM for 0, 3, 6, or 9 hr, followed by immunoblotting for the expression of p-AKT, t-AKT, pro-caspase-3 (Pro-Casp3), and cleaved caspase-3 (Cle-Casp3). (B) KMS11, LP1, OCI-My5, OPM2, JJN3, and RPMI-8226 were treated with C98 (20 μM) for 24 hr, followed by immunoblotting for the expression of PARP, Pro-Casp3, and Cle-Casp3. GAPDH was used as a loading control.
as §2

The test system of assay [3] is AKT phosphorylation in LP1 and JJN3 cells. Description: Immunoblotting of AKT phosphorylation in starved, IGF-1-stimulated LP1 and JJN3 cells. The assay is classed as cell-based. The following applies: 2 hr, then IGF-1 100 ng/mL 15 min. Here is the method: as §1, §3, §2
The next assay deals with T1, mTOR.
T1 construct: purchased Reaction Biology Corp., Malvern, PA, USA
Description: Kinase activity in cell-free assay, mTOR. The following applies: enzymatic system, even at a concentration of 300 μM. The assay is classed as biochemical. Here is the method: as §4
(§6) Kinase activity in the presence of C98 was performed by using the HotSpot technology (Reaction Biology Corp., Malvern, PA, USA) as described previously.

The test system of assay [4] is AKT phosphorylation in OPM2 cells. The assay is described as follows: Immunoblotting of AKT phosphorylation in starved, IGF-1-stimulated OPM2 cells. It is filed as cell-based, human. The following applies: OPM2 starved overnight, C98 25-100 μM, 0.5-2 hr, then IGF-1 100 ng/mL 15 min. On the procedure: as §4, §5
Assay [5] concerns the target recombinant human PI3K isoform δ (Homo sapiens, UniProt O00329). Description: Kinase activity in cell-free assay (HotSpot), PI3Kδ. The assay is classed as biochemical. As to conditions: read-out: IC50 against PI3K δ isoform. On the procedure: as §4, §5
A further assay relates to T2, PDK1.
T2 construct: purchased Reaction Biology Corp., Malvern, PA, USA
The assay is described as follows: Kinase activity in cell-free assay, PDK1. The assay is classed as biochemical. As to conditions: enzymatic system, even at a concentration of 300 μM. On the procedure:
as §4, §6

The target of assay [6] is recombinant human PI3K isoform γ (Homo sapiens, UniProt P48736). The assay is described as follows: Kinase activity in cell-free assay (HotSpot), PI3Kγ. The following applies: read-out: IC50 against PI3K γ isoform. The assay is classed as biochemical. Here is the method:
as §4, §5

The source of these data is article PMC4381587, “A novel PI3K inhibitor PIK-C98 displays potent preclinical activity against multiple myeloma” (Oncotarget, 2014).

Sequence of recombinant human PI3K isoform γ (P48736 whole entry, canonical isoform): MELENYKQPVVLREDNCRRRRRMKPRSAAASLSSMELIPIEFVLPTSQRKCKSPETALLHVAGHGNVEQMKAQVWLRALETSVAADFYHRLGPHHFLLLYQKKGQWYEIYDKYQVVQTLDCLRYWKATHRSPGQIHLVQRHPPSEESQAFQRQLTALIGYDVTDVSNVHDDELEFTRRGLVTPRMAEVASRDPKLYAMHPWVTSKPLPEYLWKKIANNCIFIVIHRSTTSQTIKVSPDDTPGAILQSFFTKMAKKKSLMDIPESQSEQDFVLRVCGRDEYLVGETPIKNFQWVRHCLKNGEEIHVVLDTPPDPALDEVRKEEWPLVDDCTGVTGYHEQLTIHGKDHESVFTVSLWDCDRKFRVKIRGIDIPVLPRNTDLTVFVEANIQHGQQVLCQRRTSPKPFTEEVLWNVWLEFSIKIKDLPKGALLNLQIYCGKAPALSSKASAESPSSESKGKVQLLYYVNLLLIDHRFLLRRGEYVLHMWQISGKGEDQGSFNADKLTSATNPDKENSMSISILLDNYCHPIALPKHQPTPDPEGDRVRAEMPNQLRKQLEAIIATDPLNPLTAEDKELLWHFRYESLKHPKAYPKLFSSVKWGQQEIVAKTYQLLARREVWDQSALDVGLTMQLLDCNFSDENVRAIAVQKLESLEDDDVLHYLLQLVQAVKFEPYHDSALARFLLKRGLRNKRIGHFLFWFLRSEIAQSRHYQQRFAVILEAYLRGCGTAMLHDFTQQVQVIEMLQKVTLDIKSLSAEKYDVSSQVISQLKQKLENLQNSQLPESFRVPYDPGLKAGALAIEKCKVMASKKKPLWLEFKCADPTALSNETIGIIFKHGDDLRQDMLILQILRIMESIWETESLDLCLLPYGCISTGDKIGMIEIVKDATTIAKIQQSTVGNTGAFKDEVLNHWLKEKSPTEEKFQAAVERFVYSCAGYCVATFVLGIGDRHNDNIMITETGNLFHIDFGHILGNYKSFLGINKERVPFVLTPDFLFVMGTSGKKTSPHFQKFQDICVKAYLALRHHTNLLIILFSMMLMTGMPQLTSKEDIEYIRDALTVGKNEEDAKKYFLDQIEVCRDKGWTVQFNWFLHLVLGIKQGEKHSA
Sequence of recombinant human PI3K isoform δ (O00329 whole entry, canonical isoform): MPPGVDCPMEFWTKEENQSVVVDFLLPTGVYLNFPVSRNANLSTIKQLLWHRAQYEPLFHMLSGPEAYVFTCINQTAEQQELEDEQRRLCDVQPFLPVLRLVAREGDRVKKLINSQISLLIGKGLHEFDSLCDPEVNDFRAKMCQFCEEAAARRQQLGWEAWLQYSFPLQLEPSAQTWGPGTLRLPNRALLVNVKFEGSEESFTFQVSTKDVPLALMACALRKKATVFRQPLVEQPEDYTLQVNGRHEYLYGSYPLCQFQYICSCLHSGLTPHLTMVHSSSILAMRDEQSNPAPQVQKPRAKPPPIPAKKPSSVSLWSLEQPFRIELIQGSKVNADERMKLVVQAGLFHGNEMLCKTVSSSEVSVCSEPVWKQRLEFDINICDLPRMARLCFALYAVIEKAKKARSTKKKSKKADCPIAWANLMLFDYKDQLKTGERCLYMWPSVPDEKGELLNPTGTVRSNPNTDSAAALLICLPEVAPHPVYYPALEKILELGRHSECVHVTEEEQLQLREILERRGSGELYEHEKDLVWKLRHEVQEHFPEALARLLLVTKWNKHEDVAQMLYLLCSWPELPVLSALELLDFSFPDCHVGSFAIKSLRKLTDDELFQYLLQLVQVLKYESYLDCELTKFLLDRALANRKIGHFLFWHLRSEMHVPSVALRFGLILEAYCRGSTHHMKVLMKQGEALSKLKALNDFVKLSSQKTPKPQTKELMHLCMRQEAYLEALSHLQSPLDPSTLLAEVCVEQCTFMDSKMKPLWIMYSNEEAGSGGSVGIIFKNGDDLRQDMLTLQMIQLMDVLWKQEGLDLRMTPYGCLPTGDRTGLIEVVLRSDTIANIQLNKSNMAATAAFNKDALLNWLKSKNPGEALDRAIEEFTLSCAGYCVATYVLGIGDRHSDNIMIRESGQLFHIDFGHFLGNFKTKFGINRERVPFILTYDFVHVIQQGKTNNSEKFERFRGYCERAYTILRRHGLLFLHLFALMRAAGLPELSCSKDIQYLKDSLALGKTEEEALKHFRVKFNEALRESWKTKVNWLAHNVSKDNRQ
Sequence of recombinant human PI3K isoform δ (P27986 whole entry partner, canonical isoform): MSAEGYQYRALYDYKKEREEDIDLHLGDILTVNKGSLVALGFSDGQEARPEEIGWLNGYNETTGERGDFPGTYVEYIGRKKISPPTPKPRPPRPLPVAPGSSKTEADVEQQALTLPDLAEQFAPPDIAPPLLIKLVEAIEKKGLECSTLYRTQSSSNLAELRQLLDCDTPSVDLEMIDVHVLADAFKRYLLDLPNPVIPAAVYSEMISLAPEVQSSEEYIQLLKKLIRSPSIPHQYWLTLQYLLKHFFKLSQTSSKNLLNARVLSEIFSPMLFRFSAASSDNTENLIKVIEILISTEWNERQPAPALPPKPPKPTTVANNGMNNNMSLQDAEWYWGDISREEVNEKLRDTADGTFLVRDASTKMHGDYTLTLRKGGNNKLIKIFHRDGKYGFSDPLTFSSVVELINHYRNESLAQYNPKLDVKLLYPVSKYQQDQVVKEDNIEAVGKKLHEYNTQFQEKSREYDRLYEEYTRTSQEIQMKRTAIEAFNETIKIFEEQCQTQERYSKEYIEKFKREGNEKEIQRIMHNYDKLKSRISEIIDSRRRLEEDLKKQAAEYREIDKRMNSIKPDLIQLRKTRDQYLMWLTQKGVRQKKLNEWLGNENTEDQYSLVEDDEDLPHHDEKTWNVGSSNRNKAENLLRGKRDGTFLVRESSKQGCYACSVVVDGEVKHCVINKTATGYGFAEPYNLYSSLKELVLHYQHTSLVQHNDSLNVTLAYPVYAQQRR
Sequence of recombinant human PI3K isoform α (P42336 whole entry, canonical isoform): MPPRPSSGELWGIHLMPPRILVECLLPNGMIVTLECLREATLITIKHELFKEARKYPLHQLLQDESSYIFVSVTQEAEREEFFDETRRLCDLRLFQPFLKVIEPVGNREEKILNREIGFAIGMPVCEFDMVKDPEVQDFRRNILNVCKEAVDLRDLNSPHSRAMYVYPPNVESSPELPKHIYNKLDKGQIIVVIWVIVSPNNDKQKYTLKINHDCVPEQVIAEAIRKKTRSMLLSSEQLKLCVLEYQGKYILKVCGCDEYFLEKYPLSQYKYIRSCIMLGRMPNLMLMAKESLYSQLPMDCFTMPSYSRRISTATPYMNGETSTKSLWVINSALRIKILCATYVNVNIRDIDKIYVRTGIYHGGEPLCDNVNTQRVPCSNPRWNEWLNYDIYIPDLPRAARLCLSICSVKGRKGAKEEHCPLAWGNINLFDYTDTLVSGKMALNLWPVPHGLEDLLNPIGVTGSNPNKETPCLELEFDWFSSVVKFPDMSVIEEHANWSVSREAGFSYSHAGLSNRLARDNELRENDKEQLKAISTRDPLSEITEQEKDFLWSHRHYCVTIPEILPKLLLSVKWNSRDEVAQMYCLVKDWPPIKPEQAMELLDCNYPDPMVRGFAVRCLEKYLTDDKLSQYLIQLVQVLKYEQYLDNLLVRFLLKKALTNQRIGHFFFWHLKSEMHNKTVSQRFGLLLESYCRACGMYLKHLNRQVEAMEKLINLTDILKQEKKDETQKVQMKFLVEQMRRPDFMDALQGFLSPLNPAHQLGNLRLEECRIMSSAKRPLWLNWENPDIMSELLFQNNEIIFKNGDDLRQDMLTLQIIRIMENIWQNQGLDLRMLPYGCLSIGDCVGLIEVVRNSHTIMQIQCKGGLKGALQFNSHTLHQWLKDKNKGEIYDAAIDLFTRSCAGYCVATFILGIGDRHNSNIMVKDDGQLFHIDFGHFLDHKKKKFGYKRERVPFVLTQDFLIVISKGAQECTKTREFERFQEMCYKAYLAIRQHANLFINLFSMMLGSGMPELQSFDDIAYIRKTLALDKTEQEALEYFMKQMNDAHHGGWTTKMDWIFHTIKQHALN
Sequence of recombinant human PI3K isoform α (P27986 whole entry partner, canonical isoform): as the sequence (P27986 whole entry partner, canonical isoform) above

Consider `N#C/C(=C\C=C\c1ccc(-c2cc(Cl)ccc2Cl)o1)C(N)=S` [C98], for which the “phosphorylation levels of AKT, mTOR, p70S6K, and 4E-BP1” value in assay [1] is reported as “downregulated”. Moreover, the PTEN protein level entry in the assay on PTEN is given as “had no effects on the PTEN protein level”. In addition, the IC50 in assay [2] worked out at 590 nM; in assay [5], 3.65 µM; in assay [6] it was 740 nM. Besides, the “tumors decreased to % of the vehicle control” value in the assay with OPM2 xenograft (16-day treatment) stood at 45%. Besides, the “tumor volume at the end of the experiment” value in the assay with OPM2 xenograft (16 days) is 605.8 ± 115.7 mm^3. In the assay on IGF-1R, the “IGF-1R activation (phosphorylation)” value is reported as “had no effects on IGF-1R activation”. Further, the “phosphorylation level of p38” value in the assay with p38 was “failed to decrease”. In addition, in the assay with JJN3 cells, the caspase-3 activation entry was “activated caspase-3 in a time- and concentration-dependent manner”. The AKT phosphorylation result in assay [3] is “suppressed AKT phosphorylation”; in assay [4], “inhibited AKT phosphorylation in a time- and concentration-dependent manner”. The “suppression of mTOR activity” value in the assay with mTOR is “failed to suppress”. Besides, the “suppression of PDK1 activity” value in the assay with PDK1 is given as “failed to suppress”.

One may read the IC50 as the midpoint of a concentration-inhibition curve.
